These are literature values, as cited in publication PMC3076957 (Chemico-biological interactions, 2008).

Data set [1] deals with T1, AKR1C3 (Homo sapiens, UniProt P42330).
T1 sequence (P42330 1-323): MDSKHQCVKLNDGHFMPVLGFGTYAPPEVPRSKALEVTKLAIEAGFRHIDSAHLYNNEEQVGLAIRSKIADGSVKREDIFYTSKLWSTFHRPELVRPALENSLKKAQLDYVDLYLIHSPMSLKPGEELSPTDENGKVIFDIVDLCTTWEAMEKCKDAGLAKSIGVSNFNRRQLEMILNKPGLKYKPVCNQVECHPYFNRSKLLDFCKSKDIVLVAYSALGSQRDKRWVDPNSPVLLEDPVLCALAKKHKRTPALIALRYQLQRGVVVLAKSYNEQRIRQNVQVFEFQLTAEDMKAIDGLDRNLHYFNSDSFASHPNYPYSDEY
The data set is described as follows: enzyme inhibition assay. To be noted: read-out: IC50 values (μM) / AKR1C3.

In data set [2] the target is AKR1C2 (Homo sapiens, UniProt P52895). To be noted: read-out: IC50 values (μM) / AKR1C2.
Data set [3] has as its target T1, AKR1C3. The data set is described as follows: inhibition of androstenedione reduction, Lineweaver-Burk. The data set is classed as biochemical.
Data set [4] concerns the target T1, AKR1C3. The data set is described as follows: inhibition of […],10-phenanthrenequinone reduction. The data set is classed as biochemical. To be noted: read-out: IC50 values (μM) / AKR1C3.

Sequence of AKR1C2 (P52895 whole entry): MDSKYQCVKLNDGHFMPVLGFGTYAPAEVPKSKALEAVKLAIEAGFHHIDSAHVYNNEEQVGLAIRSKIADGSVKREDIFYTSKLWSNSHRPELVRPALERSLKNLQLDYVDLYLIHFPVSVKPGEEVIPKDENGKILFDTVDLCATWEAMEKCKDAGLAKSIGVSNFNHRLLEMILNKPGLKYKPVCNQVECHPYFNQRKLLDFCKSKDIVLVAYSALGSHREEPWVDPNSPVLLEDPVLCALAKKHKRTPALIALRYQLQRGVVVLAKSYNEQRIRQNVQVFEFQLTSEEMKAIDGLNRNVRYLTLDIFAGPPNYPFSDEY

For `O=C(O)c1ccc(Nc2ccc([N+](=O)[O-])cc2[N+](=O)[O-])cc1` [4-Carboxy-2′,4′-dinitrodiphenylamine], the Ki in data set [1] is 0.38 µM.
For `COc1ccc2cc([C@H](C)C(=O)O)ccc2c1` [Naproxen], the IC50 in data set [2] was 1.2 µM.
On to `COc1ccc2c(c1)c(CCNC(C)=O)cn2C(=O)c1ccc(Cl)cc1` [CBM, N-(4-chlorobenzoyl)-melatonin], for which, in data set [3], the Ki is 6 µM.
In the case of `Cc1ccc(Cl)c(Nc2ccccc2C(=O)O)c1Cl` [Meclofenamic Acid], in data set [4], the IC50 is 0.7 µM.
Turning to `O=C(O)c1ccc(C(=O)c2ccccc2)cc1` [4-Benzoyl-benzoic acid], the Ki in data set [1] is 1.9 µM.
